Laboratory results taken from PubChem BioAssay AID1963443 (Molecular Pharmacology Branch, DTP, NCI, 2024).

System: MDA-MB-231 complex spheroids, growth inhibition
Assay: Anticancer human tumor MDA-MB-231 cell line growth inhibition [Asc];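 further: spheroids exposed to compounds for 7 days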
Details: for IC50: curve of first compound; for viability, T/C: stronger effect = lower value
How it was run: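 Complex spheroids combining tumor cells with HUVEC endothelial cells and human MSCs, at 37 degrees C, 5% CO2; agents tested alone or combined, half-log dilutions from at or near clinical Cmax, or 10 microM if Cmax unknown.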

[1] = second compound 0.1 µM, first compound 0.00316 µM
[2] = second compound 0.1 µM, first compound 0.01 µM
[3] = second compound 0.1 µM, first compound 0.0316 µM
[4] = second compound 0.1 µM, first compound 0.1 µM
[5] = second compound 0.1 µM, first compound 0.316 µM
[6] = second compound 0.1 µM, first compound 1 µM
[7] = second compound 0.316 µM, first compound 0.00316 µM
[8] = second compound 0.316 µM, first compound 0.01 µM
[9] = second compound 0.316 µM, first compound 0.0316 µM
[10] = second compound 0.316 µM, first compound 0.1 µM
[11] = second compound 0.316 µM, first compound 0.316 µM
[12] = second compound 0.316 µM, first compound 1 µM
[13] = second compound 1 µM, first compound 0.00316 µM
[14] = second compound 1 µM, first compound 0.01 µM
[15] = second compound 1 µM, first compound 0.0316 µM
[16] = second compound 1 µM, first compound 0.1 µM
[17] = second compound 1 µM, first compound 0.316 µM
[18] = second compound 1 µM, first compound 1 µM
[19] = second compound 3.16 µM, first compound 0.00316 µM
[20] = second compound 3.16 µM, first compound 0.01 µM
[21] = second compound 3.16 µM, first compound 0.0316 µM
[22] = second compound 3.16 µM, first compound 0.1 µM
[23] = second compound 3.16 µM, first compound 0.316 µM
[24] = second compound 3.16 µM, first compound 1 µM
[25] = second compound 10 µM, first compound 0.00316 µM
[26] = second compound 10 µM, first compound 0.01 µM
[27] = second compound 10 µM, first compound 0.0316 µM
[28] = second compound 10 µM, first compound 0.1 µM
[29] = second compound 10 µM, first compound 0.316 µM
[30] = second compound 10 µM, first compound 1 µM

SMILES | IC50 (second compound 0.1 µM) [nM] | IC50 (second compound 0.316 µM) [nM] | IC50 (second compound 1 µM) [nM] | IC50 (second compound 3.16 µM) [nM] | IC50 (second compound 10 µM) [nM] | viability, T/C [1] [%] | viability, T/C [2] [%] | viability, T/C [3] [%] | viability, T/C [4] [%] | viability, T/C [5] [%] | viability, T/C [6] [%] | viability, T/C [7] [%] | viability, T/C [9] [%] | viability, T/C [10] [%] | viability, T/C [15] [%] | viability, T/C [16] [%] | viability, T/C [21] [%] | viability, T/C [22] [%] | viability, T/C [27] [%] | viability, T/C [28] [%] | other results
CCN1CCN(Cc2ccc(Nc3ncc(F)c(-c4cc(F)c5nc(C)n(C(C)C)c5c4)n3)nc2)CC1 + Cc1c(S(C)(=O)=O)c(-c2cc(F)cc(N3CCN(c4ccc(NS(=O)(=O)c5ccc(NC(CCN6CCC(C(=O)OCCCP(=O)(O)O)CC6)CSc6ccccc6)c(S(=O)(=O)C(F)(F)F)c5)cc4)CC3)c2)c(-c2ccc(Cl)cc2)n1C(C)C | 648 | > 1000 | 306 | 258 | 308 | 97.4 | 97.9 | 84 | 65.6 | 47.9 | 51.5 | 103 | 84.9 | 64.8 | 87.7 | 67.6 | 83.8 | 63.8 | 93.6 | 76.9 | viability, T/C [8]: 95.4%; viability, T/C [11]: 49.7%; viability, T/C [12]: 53.1%; viability, T/C [13]: 98.1%; viability, T/C [14]: 93.2%; viability, T/C [17]: 49.5%; viability, T/C [18]: 42.1%; viability, T/C [19]: 95.9%; viability, T/C [20]: 91.9%; viability, T/C [23]: 47.7%; viability, T/C [24]: 36.5%; viability, T/C [25]: 104%; viability, T/C [26]: 97.7%; viability, T/C [29]: 48.7%; viability, T/C [30]: 32.2%
Cn1ncnc1[C@H]1c2n[nH]c(=O)c3cc(F)cc(c23)N[C@@H]1c1ccc(F)cc1 + Cc1c(S(C)(=O)=O)c(-c2cc(F)cc(N3CCN(c4ccc(NS(=O)(=O)c5ccc(NC(CCN6CCC(C(=O)OCCCP(=O)(O)O)CC6)CSc6ccccc6)c(S(=O)(=O)C(F)(F)F)c5)cc4)CC3)c2)c(-c2ccc(Cl)cc2)n1C(C)C | > 100 | > 100 | > 100 | > 100 | > 100 | 107 | 92.3 | 87.8 | 87.2 |  |  | 95.9 | 80.7 | 81 | 82.3 | 75.7 | 68.7 | 63.1 | 74.4 | 65 | viability, T/C (second compound 0.1 µM, first compound 0.000316 µM): 104%; viability, T/C (second compound 0.1 µM, first compound 0.001 µM): 95.4%; viability, T/C (second compound 0.316 µM, first compound 0.000316 µM): 103%; viability, T/C (second compound 0.316 µM, first compound 0.001 µM): 105%; viability, T/C [8]: 90.6%; viability, T/C (second compound 1 µM, first compound 0.000316 µM): 101%; viability, T/C (second compound 1 µM, first compound 0.001 µM): 107%; viability, T/C [13]: 105%; viability, T/C [14]: 89.5%; viability, T/C (second compound 3.16 µM, first compound 0.000316 µM): 101%; viability, T/C (second compound 3.16 µM, first compound 0.001 µM): 95.5%; viability, T/C [19]: 82.2%; viability, T/C [20]: 83.7%; viability, T/C (second compound 10 µM, first compound 0.000316 µM): 115%; viability, T/C (second compound 10 µM, first compound 0.001 µM): 108%; viability, T/C [25]: 98.5%; viability, T/C [26]: 91.3%
O=C(c1cc(Cc2n[nH]c(=O)c3ccccc23)ccc1F)N1CCN(C(=O)C2CC2)CC1 + Cc1c(S(C)(=O)=O)c(-c2cc(F)cc(N3CCN(c4ccc(NS(=O)(=O)c5ccc(NC(CCN6CCC(C(=O)OCCCP(=O)(O)O)CC6)CSc6ccccc6)c(S(=O)(=O)C(F)(F)F)c5)cc4)CC3)c2)c(-c2ccc(Cl)cc2)n1C(C)C | > 10000 | > 10000 | > 10000 | 7460 | 6790 |  |  | 96.8 | 98.9 | 94.9 | 85.7 |  | 91.7 | 96.2 | 97.7 | 95.3 | 86.8 | 93.8 | 102 | 101 | viability, T/C (second compound 0.1 µM, first compound 3.16 µM): 78.3%; viability, T/C (second compound 0.1 µM, first compound 10 µM): 68.9%; viability, T/C [11]: 100%; viability, T/C [12]: 87.2%; viability, T/C (second compound 0.316 µM, first compound 3.16 µM): 87%; viability, T/C (second compound 0.316 µM, first compound 10 µM): 65.6%; viability, T/C [17]: 88.8%; viability, T/C [18]: 85%; viability, T/C (second compound 1 µM, first compound 3.16 µM): 77.5%; viability, T/C (second compound 1 µM, first compound 10 µM): 54.5%; viability, T/C [23]: 89.3%; viability, T/C [24]: 83.9%; viability, T/C (second compound 3.16 µM, first compound 3.16 µM): 72.2%; viability, T/C (second compound 3.16 µM, first compound 10 µM): 42.3%; viability, T/C [29]: 96.8%; viability, T/C [30]: 91%; viability, T/C (second compound 10 µM, first compound 3.16 µM): 75.7%; viability, T/C (second compound 10 µM, first compound 10 µM): 36.9%
O=C(c1ccc(F)c(F)c1Nc1ccc(I)cc1F)N1CC(O)([C@@H]2CCCCN2)C1 + Cc1c(S(C)(=O)=O)c(-c2cc(F)cc(N3CCN(c4ccc(NS(=O)(=O)c5ccc(NC(CCN6CCC(C(=O)OCCCP(=O)(O)O)CC6)CSc6ccccc6)c(S(=O)(=O)C(F)(F)F)c5)cc4)CC3)c2)c(-c2ccc(Cl)cc2)n1C(C)C | 76.3 | 103 | 71.3 | 117 | 116 | 87.8 | 68.8 | 60.6 | 51.9 | 24.9 | 1.38 | 86.3 | 64.7 | 54.8 | 66.7 | 60.3 | 60.4 | 57.2 | 89 | 57.1 | viability, T/C [8]: 61.9%; viability, T/C [11]: 14.6%; viability, T/C [12]: 0.96%; viability, T/C [13]: 96.5%; viability, T/C [14]: 59.5%; viability, T/C [17]: 10.8%; viability, T/C [18]: 1.16%; viability, T/C [19]: 81.9%; viability, T/C [20]: 56.5%; viability, T/C [23]: 5.78%; viability, T/C [24]: 0.65%; viability, T/C [25]: 93.9%; viability, T/C [26]: 93.1%; viability, T/C [29]: 0.97%; viability, T/C [30]: 0.83%
